# Several values for one entry are separate records, joined by “and”; a condition that tells them apart may be missing. Equal values may be shown once. Numbers after ± are expanded uncertainties.
# Conditions: DTA; for Normal melting temperature: Crystal
Structure (SMILES),Triple point temperature (Crystal 1),Triple point temperature (Crystal 2),Normal melting temperature,Triple point temperature (Crystal 3)
CCCCCCCCCCCCCCCCO [1-hexadecanol],323.3 ± 0.87 K and 323 ± 0.9 K,322.3 ± 0.9 K and 322.2 ± 0.9 K,50 ± 0.5 °C,
CCCCCCCCO [octan-1-ol],258.7 ± 0.9 K and 258.3 ± 0.9 K,255 ± 0.5 K and 256 ± 0.9 K,-14.4 ± 0.5 °C,
CCCCCCCCCCCCCCO [1-tetradecanol],311.2 ± 0.9 K and 311.4 ± 0.9 K,310.2 ± 0.9 K and 310.4 ± 0.9 K,38.2 ± 0.5 °C,
CCCCCCCCCCCCCCCCCCO [1-octadecanol],331.6 ± 0.9 K,331 ± 0.9 K and 330.6 ± 0.9 K,58.5 ± 0.5 °C,

# Next, values leading:
Triple point temperature (Crystal 1),Triple point temperature (Crystal 2),Normal melting temperature,Triple point temperature (Crystal 3),Structure (SMILES)
280.6 ± 0.9 K and 280.8 ± 0.9 K,280.2 ± 0.9 K and 279.9 ± 0.9 K,7.5 ± 0.5 °C,276.2 ± 0.9 K and 277.5 ± 0.9 K,CCCCCCCCCCO [decan-1-ol]
297.8 ± 0.9 K and 297.4 ± 0.9 K,296.4 ± 0.9 K,24.7 ± 0.5 °C and 24.2 ± 0.5 °C,,CCCCCCCCCCCCO [dodecan-1-ol]

# Reference: the NIST ThermoML archive (doi:10.1016/j.tca.2014.05.022)
